{"source": "patent US10765661B2", "about": "“Method for improving feed digestibility and growth performance” (DSM IP ASSETS B.V., priority 2015, dated 2020)", "key": {"[1]": {"tested_on": "Male broiler (Ross 308) chicks", "format": "in vivo", "conditions": "main effect mean (factor: Yes)", "source_text": "The proteolytic enzyme (Ronozyme®ProAct) and Vitamin C (Staye®50) were provided in powder form and a ready to use formulation by DSM Nutritional Products.\nMale broiler (Ross 308) chicks were obtained from a local hatchery as day-olds and reared in cage in an environmentally controlled room. On d 0, chicks were individually weighed and 640 birds were allocated on weight basis to 80 cages (8 chicks per cage). The 8 dietary treatments (Table 1) were then randomly assigned to 10 replicate cages each. Experimental diets were fed from 0-21 and 22-35 days.\nDuring week 1, a broiler coccidiosis vaccine (Immucox, Pacificvet, Christchurch, New Zealand) was given via drinking water to all chicks.\nThe birds received 20-hours of fluorescent illumination and allowed free access to the diets and water. Birds were checked at least three times daily (9.00 am, […]) and any unusual aspect of bird behaviour or condition was recorded. Sick or injured animals were weighed and removed from the study.\nThe experimental design is a 2×2×2 factorial arrangement of treatments, with two basal control diets (positive control and negative control), two levels of enzyme (with and without) and two levels of vitamin C (with and without).\nThe two control diets, positive and negative, based on wheat and soybean meal, were mixed for each phase of the study (0-21 and 22-35 d) (Table 2). The PC and NC diets were then used to develop 8 dietary treatments by adding the ProAct enzyme and Vitamin C mixtures. All the diets were fed in pellet form.\nGrowth performance: Feed and water were available ad libitum during the 35 days experimental period. Body weights and feed intake were recorded on days 7, 14, 21, 28 and 35. Mortality was recorded daily. Feed per gain values were corrected for the body weight of any bird that died or culled during the course of the experiment.\nThe data were subjected to ANOVA using the General Linear Models procedure of SAS (2004). Significant differences were considered at P<0.05. When a significant F-test was detected, means were separated using the least significant difference test."}, "Ross 308 male broilers": {"tested_on": "Ross 308 male broilers", "experiment": "Growth performance of broiler chickens fed two proteolytic enzymes supplemented with vitamin C (Example 3)", "format": "in vivo", "conditions": "for FCR / FI / WG: NC diet, Vit. C level 300 mg/kg, alone or with the named enzyme (CIBENZA 350 mg/kg, ProAct 200 mg/kg feed)", "description": "A total of 490 day old Ross 308 male broilers were randomly assigned to 7 treatments (6 experimental groups plus one control group) with 10 replicates of 7 birds per replicate. Six experimental groups with two levels of vitamin C (0 and 300 mg/kg feed) and three enzyme treatments: • no feed enzymes, • Novus CIBENZA (Bacillus licheniformis PWD-1 at levels of 350 mg/kg feed), • DSM RONOZYME® ProAct (at levels of 200 mg/kg feed), in a 2×3 factorial design plus one positive control. The diets of the positive control (PC) were based on wheat and soybean meal and were adequate in all nutrients. The other 6 experimental groups were fed with a negative control (NC) diet based also on wheat and soybean meal but containing less protein (97.5%) and digestible amino acids (95.5%) than the PC. The birds were fed starter (1-14 d) diets during the trial.\nThe birds were fed the starter (1-14 d) diets ad libitum and had free access to water throughout the trial. RONOZYME® NP (CT) and RONOZYME® WX at levels of 200 and 100 mg/kg feed respectively were included in each diet. […] After mixing, the feed was pelleted at 75-80° C.\nAll birds were reared in cages in an environmentally controlled room and received 23L:1D of lighting regime during the first week and 20L:4D afterward until the end of the trial. The temperature of the room was maintained at 32±1° C. on the day of arrival and adapted according to the age specific requirements of the chickens.\nAt d 4, a broiler coccidiosis vaccine (Coccivac B®, MSD, Canada) was given as a mild challenge to all birds via oral administration. Body weights and feed intake were recorded at weekly intervals. Mortality was recorded daily. The weight of the dead animals was used to adjust the feed conversion ratio (FCR) which were calculated by dividing total feed intake by weight gain of live plus weight of dead birds per cage, respectively."}, "[2]": {"conditions": "1-7 d, main effect mean of the 2x3 factorial (NC diet)"}, "[3]": {"conditions": "1-14 d, main effect mean of the 2x3 factorial (NC diet)"}}, "note": "Like-named read-outs stand apart in the source and are kept apart here. Marks after values point to notes of the source that are not given here.", "data": [{"smiles": "O=C1O[C@H]([C@@H](O)CO)C(O)=C1O", "note": "[Vitamin C, L-ascorbic acid]", "values": [{"measurement": "Feed intake, main effect", "setting": "[1]; 1-21 d post-hatching", "value": 1437, "unit": "g/bird"}, {"measurement": "Feed/gain, main effect", "setting": "[1]; 1-21 d post-hatching", "value": 1.43, "unit": "g/g"}, {"measurement": "Weight gain, main effect", "setting": "[1]; 1-21 d post-hatching", "value": 1006, "unit": "g/bird"}, {"measurement": "Feed intake, main effect", "setting": "[1]; 1-35 d post-hatching", "value": 3809, "unit": "g/bird"}, {"measurement": "Feed/gain, main effect", "setting": "[1]; 1-35 d post-hatching", "value": 1.64, "unit": "g/g"}, {"measurement": "Weight gain, main effect", "setting": "[1]; 1-35 d post-hatching", "value": 2349, "unit": "g/bird"}, {"measurement": "FCR", "setting": "Ross 308 male broilers; 1-7 d", "value": 1.141}, {"measurement": "FI", "setting": "Ross 308 male broilers; 1-7 d", "value": 157, "unit": "g/bird"}, {"measurement": "WG", "setting": "Ross 308 male broilers; 1-7 d", "value": 137, "unit": "g/bird"}, {"measurement": "FCR, main effect", "setting": "Ross 308 male broilers; [2]", "value": 1.156}, {"measurement": "FI, main effect", "setting": "Ross 308 male broilers; [2]", "value": 161, "unit": "g/bird"}, {"measurement": "WG, main effect", "setting": "Ross 308 male broilers; [2]", "value": 140, "unit": "g/bird"}, {"measurement": "FCR, main effect", "setting": "Ross 308 male broilers; 1-7 d, main effect mean of the 2x3 factorial (NC diet), listed as Vit. C", "value": "1.156^A"}, {"measurement": "FCR", "setting": "Ross 308 male broilers; 1-14 d", "value": "1.354^a"}, {"measurement": "FI", "setting": "Ross 308 male broilers; 1-14 d", "value": 602, "unit": "g/bird"}, {"measurement": "WG", "setting": "Ross 308 male broilers; 1-14 d", "value": 445, "unit": "g/bird"}, {"measurement": "FCR, main effect", "setting": "Ross 308 male broilers; [3]", "value": 1.440}, {"measurement": "FI, main effect", "setting": "Ross 308 male broilers; [3]", "value": 635, "unit": "g/bird"}, {"measurement": "WG, main effect", "setting": "Ross 308 male broilers; [3]", "value": 443, "unit": "g/bird"}, {"measurement": "FCR, main effect", "setting": "Ross 308 male broilers; 1-14 d, main effect mean of the 2x3 factorial (NC diet), listed as Vit. C", "value": "1.440^A"}, {"measurement": "FCR, main effect", "setting": "Ross 308 male broilers; d 1 to d 21, birds fed vitamin C vs. 1.516 without, P=0.080", "value": 1.478}]}]}
